According to patent US10815274B2, “Immunogenic WT-1 peptides and methods of use thereof” (Memorial Sloan Kettering Cancer Center, priority 2012, dated 2020):
Where a SMILES comes first, the peptide text is derived from it.

Tests used:
WT1+ leukemia = test: Cr51 release assay, cytotoxic CTL response vs WT1+ leukemia expressing restricting HLA allele; format: cell-based, human; conditions: 50:1 E:T
Excerpt: (§1) Twenty-four primary leukemic cells and 1 leukemic cell line were characterized for their expression of WT1 by intracellular FACS staining using murine anti-human WT1 monoclonal antibodies (Neomarkers, Fremont, Calif.) as previously described (32,38) The WT1+ leukemias included blast cells from 11 primary AMLs, 3 primary ALLs and 1B-cell precursor ALL cell line. Ten WT1-leukemias, were used as controls, and included 3 B-cell precursor ALLs and 7 AMLs.
PHA blasts were not available from every patient that provided leukemia blasts for this study.

[1] = test system: WT1 peptide loaded autologous APC; test: Cr51 release assay, cytotoxic CTL response vs peptide loaded autologous APC; format: cell-based, human; conditions: 50:1 E:T
WT1- autologous APC = test: Cr51 release assay, cytotoxic CTL response vs unmodified autologous APC; format: cell-based, human; conditions: 50:1 E:T
[2] = test system: WT1+ allo APC with restricting HLA allele loaded with WT1 peptide; test: Cr51 release assay, cytotoxic CTL response vs peptide loaded allogeneic APC sharing restricting HLA allele (HLA restriction); conditions: for Cytotoxic CTL response, % vs WT1+ allo APC with restricting HLA allele loaded with WT1 peptide: 50:1 E:T
[3] = test system: WT1- allo APC with restricting HLA allele; test: Cr51 release assay, cytotoxic CTL response vs unloaded allogeneic APC sharing restricting HLA allele; format: cell-based, human; conditions: 50:1 E:T
WT1- leukemia = test: Cr51 release assay, cytotoxic CTL response vs WT1- leukemia; format: cell-based, human; conditions: 50:1 E:T
Excerpt: as §1

For `CC(C)C[C@H](N)C(=O)N[C@@H](CC(=O)O)C(=O)N[C@@H](Cc1ccccc1)C(=O)N[C@@H](C)C(=O)N1CCC[C@H]1C(=O)N1CCC[C@H]1C(=O)NCC(=O)N[C@@H](C)C(=O)N[C@@H](CO)C(=O)O` [SEQ ID NO: 155] (H-LDFAPPGAS-OH; N-terminus and C-terminus assumed), the “Cytotoxic CTL response, % vs WT1+ leukemia” value (WT1+ leukemia; HLA allele A0201) was 40%, the “Cytotoxic CTL response, % vs WT1 peptide loaded autologous APC” value ([1]; HLA allele A0201) was 73% and the “Cytotoxic CTL response, % vs WT1- autologous APC” value (WT1- autologous APC; HLA allele A0201) was 0%. The “Cytotoxicity of T-cells restricted by HLA A0201 against loaded targets” value [2] was “able to lyse”, the “Cytotoxic CTL response, % vs WT1+ allo APC with restricting HLA allele loaded with WT1 peptide” value (from here on “Cytotoxic CTL response, % … with WT1 peptide”) ([2]; HLA allele A0201) was 62% and the “Cytotoxic CTL response, % vs WT1- allo APC with restricting HLA allele” value ([3]; HLA allele A0201) was 1%. For the same compound, the “Cytotoxic CTL response, % vs WT1- leukemia” value (WT1- leukemia; HLA allele A0201) was 0%.

For `CC(C)C[C@H](N)C(=O)N[C@@H](CC(=O)O)C(=O)N[C@@H](Cc1ccccc1)C(=O)N[C@@H](C)C(=O)N1CCC[C@H]1C(=O)N1CCC[C@H]1C(=O)NCC(=O)N[C@@H](C)C(=O)N[C@@H](CO)C(=O)N[C@@H](C)C(=O)N[C@@H](Cc1ccc(O)cc1)C(=O)O` [SEQ ID NO: 156] (H-LDFAPPGASAY-OH; N-terminus and C-terminus assumed), the “Cytotoxic CTL response, % vs WT1+ leukemia” value (WT1+ leukemia; HLA allele DRB10402) was 40%, the “Cytotoxic CTL response, % vs WT1 peptide loaded autologous APC” value ([1]; HLA allele DRB10402) was 73% and the “Cytotoxic CTL response, % vs WT1- autologous APC” value (WT1- autologous APC; HLA allele DRB10402) was 0%. The “Cytotoxicity of T-cells restricted by HLA A0201 against loaded targets” value [2] was “able to lyse”, the “Cytotoxic CTL response, % … with WT1 peptide” value ([2]; HLA allele DRB10402) was 71% and the “Cytotoxicity of class II HLA-restricted T-cells against loaded targets” value ([2]; targets sharing the alleles DRB1 0402 and DQB1 0302) was “selectively cytotoxic”. For the same compound, the “Cytotoxic CTL response, % vs WT1- allo APC with restricting HLA allele” value ([3]; HLA allele DRB10402) was 1% and the “Cytotoxic CTL response, % vs WT1- leukemia” value (WT1- leukemia; HLA allele DRB10402) was 0%.

In the case of `C[C@H](N)C(=O)N[C@@H](CS)C(=O)N[C@@H](CCCNC(=N)N)C(=O)N[C@@H](Cc1ccc(O)cc1)C(=O)NCC(=O)N1CCC[C@H]1C(=O)N[C@@H](Cc1ccccc1)C(=O)NCC(=O)N1CCC[C@H]1C(=O)O` [SEQ ID NO: 159] (H-ACRYGPFGP-OH; N-terminus and C-terminus assumed), the “Cytotoxic CTL response, % vs WT1 peptide loaded autologous APC” value ([1]; HLA allele B4402) is reported as 46%, the “Cytotoxic CTL response, % vs WT1- autologous APC” value (WT1- autologous APC; HLA allele B4402) is reported as 8% and the “Cytotoxic CTL response, % … with WT1 peptide” value ([2]; HLA allele B4402) is reported as 23%. The “Cytotoxic CTL response, % vs WT1- allo APC with restricting HLA allele” value ([3]; HLA allele B4402) was 7%.

In the case of `CSCC[C@H](NC(=O)[C@H](CCCNC(=N)N)NC(=O)[C@H](C)NC(=O)[C@H](CCC(N)=O)NC(=O)CNC(=O)[C@@H](N)CO)C(=O)N[C@@H](Cc1ccccc1)C(=O)N1CCC[C@H]1C(=O)N[C@@H](CC(N)=O)C(=O)O` [SEQ ID NO: 160] (H-SGQARMFPN-OH; N-terminus and C-terminus assumed), the “Cytotoxic CTL response, % vs WT1 peptide loaded autologous APC” value ([1]; HLA allele B3503) is reported as 84%, the “Cytotoxic CTL response, % vs WT1 peptide loaded autologous APC” value ([1]; HLA allele C0401) is reported as 84% and the “Cytotoxic CTL response, % vs WT1- autologous APC” value (WT1- autologous APC; HLA allele B3503) is reported as 0%. The “Cytotoxic CTL response, % vs WT1- autologous APC” value (WT1- autologous APC; HLA allele C0401) was 0%, the “Cytotoxic CTL response, % … with WT1 peptide” value ([2]; HLA allele B3503) was 41% and the “Cytotoxic CTL response, % … with WT1 peptide” value ([2]; HLA allele C0401) was 41%. The “Cytotoxic CTL response, % vs WT1- allo APC with restricting HLA allele” value ([3]; HLA allele B3503) was 3% and the “Cytotoxic CTL response, % vs WT1- allo APC with restricting HLA allele” value ([3]; HLA allele C0401) was 3%.

`CC(C)C[C@H](NC(=O)[C@H](CO)NC(=O)[C@@H]1CCCN1C(=O)[C@@H]1CCCN1C(=O)[C@H](Cc1ccccc1)NC(=O)[C@@H](N)Cc1c[nH]cn1)C(=O)N1CCC[C@H]1C(=O)N1CCC[C@H]1C(=O)N[C@H](C(=O)O)[C@@H](C)O` [SEQ ID NO: 145] (H-HFPPSLPPT-OH; N-terminus and C-terminus assumed) was tested, and the “Cytotoxic CTL response, % vs WT1 peptide loaded autologous APC” value ([1]; HLA allele A3101) was 42%, the “Cytotoxic CTL response, % vs WT1- autologous APC” value (WT1- autologous APC; HLA allele A3101) was 0% and the “Cytotoxic CTL response, % … with WT1 peptide” value ([2]; HLA allele A3101) was 27%. The “Cytotoxic CTL response, % vs WT1- allo APC with restricting HLA allele” value ([3]; HLA allele A3101) was 0%.

For `C[C@H](NC(=O)[C@H](C)NC(=O)[C@H](Cc1c[nH]cn1)NC(=O)[C@@H](N)Cc1c[nH]cn1)C(=O)N[C@@H](CCC(N)=O)C(=O)N[C@@H](Cc1ccccc1)C(=O)N1CCC[C@H]1C(=O)N[C@@H](CC(N)=O)C(=O)N[C@@H](Cc1c[nH]cn1)C(=O)O` [SEQ ID NO: 164] (H-HHAAQFPNH-OH; N-terminus and C-terminus assumed), the “Cytotoxic CTL response, % vs WT1 peptide loaded autologous APC” value ([1]; HLA allele B3801) was 26%, the “Cytotoxic CTL response, % vs WT1- autologous APC” value (WT1- autologous APC; HLA allele B3801) was 0% and the “Cytotoxic CTL response, % … with WT1 peptide” value ([2]; HLA allele B3801) was 17%. The “Cytotoxic CTL response, % vs WT1- allo APC with restricting HLA allele” value ([3]; HLA allele B3801) was 1%.

With `CC(C)C[C@H](NC(=O)[C@H](CS)NC(=O)CNC(=O)[C@@H]1CCCN1)C(=O)N[C@@H](CCC(N)=O)C(=O)N[C@@H](CCC(N)=O)C(=O)N1CCC[C@H]1C(=O)N[C@@H](CCC(=O)O)C(=O)N[C@@H](CCC(N)=O)C(=O)N[C@@H](CCC(N)=O)C(=O)NCC(=O)O` [SEQ ID NO: 149] (H-PGCLQQPEQQG-OH; N-terminus and C-terminus assumed) the “Cytotoxic CTL response, % vs WT1 peptide loaded autologous APC” value ([1]; HLA allele DRB10101) was 54%, the “Cytotoxic CTL response, % vs WT1- autologous APC” value (WT1- autologous APC; HLA allele DRB10101) was 6% and the “Cytotoxic CTL response, % … with WT1 peptide” value ([2]; HLA allele DRB10101) was 25%. The “Cytotoxic CTL response, % vs WT1- allo APC with restricting HLA allele” value ([3]; HLA allele DRB10101) was 1%.
